# Measured values taken from ChEMBL document CHEMBL5356950, “Past, present and future of xanthine oxidase inhibitors: design strategies, structural and pharmacological insights, patents and clinical trials” (RSC Med Chem, 2023).
# pIC50: −log10 of the molar value.
# Tests used:
# [1] = target: T1, Xanthine dehydrogenase/oxidase (Homo sapiens, UniProt P47989); test: Inhibition of XO (unknown origin) relative to control
# [2] = target: T2, Xanthine dehydrogenase/oxidase (Bos taurus, UniProt P80457); test: Inhibition of Bovine milk XO using xanthine as substrate at 100 uM measured after 10 mins by microplate reader analysis relative to control; conditions: cattle
# T2 sequence (P80457 whole entry): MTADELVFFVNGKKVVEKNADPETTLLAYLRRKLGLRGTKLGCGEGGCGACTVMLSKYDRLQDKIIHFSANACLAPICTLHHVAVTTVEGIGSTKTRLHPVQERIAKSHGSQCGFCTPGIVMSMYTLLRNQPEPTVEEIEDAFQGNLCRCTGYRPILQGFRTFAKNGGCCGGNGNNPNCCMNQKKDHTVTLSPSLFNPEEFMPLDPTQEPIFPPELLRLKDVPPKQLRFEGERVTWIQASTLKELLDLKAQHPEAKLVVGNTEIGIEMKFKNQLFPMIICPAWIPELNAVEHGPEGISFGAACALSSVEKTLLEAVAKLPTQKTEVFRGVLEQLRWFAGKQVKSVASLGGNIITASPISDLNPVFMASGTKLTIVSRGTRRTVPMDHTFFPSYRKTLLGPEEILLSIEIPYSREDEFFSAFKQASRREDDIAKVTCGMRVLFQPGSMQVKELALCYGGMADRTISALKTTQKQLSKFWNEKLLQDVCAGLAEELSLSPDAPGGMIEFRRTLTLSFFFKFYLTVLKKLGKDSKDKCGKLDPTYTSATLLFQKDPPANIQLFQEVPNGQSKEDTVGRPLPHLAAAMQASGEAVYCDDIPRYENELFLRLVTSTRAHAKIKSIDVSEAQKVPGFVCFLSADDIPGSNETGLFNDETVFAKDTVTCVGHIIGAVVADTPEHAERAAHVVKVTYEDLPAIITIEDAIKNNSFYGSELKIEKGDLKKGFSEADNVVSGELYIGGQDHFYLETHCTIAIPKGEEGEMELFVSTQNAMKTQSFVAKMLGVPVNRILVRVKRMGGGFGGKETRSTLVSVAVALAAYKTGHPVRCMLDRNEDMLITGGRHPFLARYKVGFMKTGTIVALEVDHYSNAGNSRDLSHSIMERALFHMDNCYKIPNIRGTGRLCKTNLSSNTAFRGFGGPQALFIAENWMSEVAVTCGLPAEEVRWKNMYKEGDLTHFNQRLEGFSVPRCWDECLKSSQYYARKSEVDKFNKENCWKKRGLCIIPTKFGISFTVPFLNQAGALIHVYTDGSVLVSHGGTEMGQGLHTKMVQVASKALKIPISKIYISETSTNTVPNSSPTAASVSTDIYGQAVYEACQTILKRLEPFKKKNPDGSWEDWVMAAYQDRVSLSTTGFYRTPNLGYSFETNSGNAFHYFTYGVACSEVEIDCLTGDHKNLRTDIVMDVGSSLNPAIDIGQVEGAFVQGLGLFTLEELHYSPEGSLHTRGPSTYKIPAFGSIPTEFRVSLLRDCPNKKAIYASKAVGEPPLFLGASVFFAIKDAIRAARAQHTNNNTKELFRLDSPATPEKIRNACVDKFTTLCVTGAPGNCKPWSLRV
# [3] = target: T2, Xanthine dehydrogenase/oxidase; test: Inhibition of Bovine XO using xanthine as substrate assessed as decrease in uric acid level by spectrophotometric analysis
# [4] = target: T2, Xanthine dehydrogenase/oxidase; test: Inhibition of Bovine milk XO using xanthine as substrate assessed as decrease in uric acid level measured after 5 mins by spectrophotometric analysis
# [5] = target: T2, Xanthine dehydrogenase/oxidase; test: Inhibition of Bovine milk XO
# [6] = Toxicity in Wistar rat assessed as decrease in serum uric acid level at 1 mg/kg, po measured after 6 hrs; type: organism-based; design: scale not given: the % may be the effect or the level left; conditions: in vivo
# [7] = target: T2, Xanthine dehydrogenase/oxidase; test: Inhibition of Bovine milk XO measured after 30 mins
# [8] = target: T3, Solute carrier family 22 member 12 (Homo sapiens, UniProt Q96S37); test: Inhibition of human URAT1
# T3 sequence (Q96S37 whole entry): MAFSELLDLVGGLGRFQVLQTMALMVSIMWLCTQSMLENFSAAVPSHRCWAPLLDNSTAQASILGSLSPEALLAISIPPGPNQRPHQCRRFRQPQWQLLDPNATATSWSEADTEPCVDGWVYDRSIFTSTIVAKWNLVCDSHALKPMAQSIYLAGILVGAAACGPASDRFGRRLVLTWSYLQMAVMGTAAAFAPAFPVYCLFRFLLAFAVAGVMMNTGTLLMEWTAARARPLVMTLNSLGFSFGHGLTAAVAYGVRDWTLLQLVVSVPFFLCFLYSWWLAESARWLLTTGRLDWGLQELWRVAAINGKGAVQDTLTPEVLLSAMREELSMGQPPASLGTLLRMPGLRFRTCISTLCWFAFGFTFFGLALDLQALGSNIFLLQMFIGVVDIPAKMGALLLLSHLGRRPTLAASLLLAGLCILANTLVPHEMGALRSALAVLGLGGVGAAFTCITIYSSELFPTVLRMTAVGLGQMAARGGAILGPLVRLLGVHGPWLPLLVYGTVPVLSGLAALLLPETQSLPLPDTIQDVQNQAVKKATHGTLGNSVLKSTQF
# [9] = target: T2, Xanthine dehydrogenase/oxidase; test: Inhibition of Bovine milk XO using xanthine as substrate measured after 10 mins by spectrophotometric analysis relative to control; conditions: cattle
# [10] = target: T2, Xanthine dehydrogenase/oxidase; test: Inhibition of Bovine milk XO using xanthine as substrate measured after 10 mins by spectrophotometric analysis
# [11] = target: T2, Xanthine dehydrogenase/oxidase; test: Inhibition of Bovine XO using xanthine as substrate assessed as decrease in uric acid level measured after 10 mins by spectrophotometric analysis
# [12] = target: T3, Solute carrier family 22 member 12; test: Inhibition of URAT1 (unknown origin) assessed as decrease in uric acid level measured after 15 mins
# [13] = target: T3, Solute carrier family 22 member 12; test: Inhibition of URAT1 (unknown origin)
# [14] = target: T1, Xanthine dehydrogenase/oxidase; test: Inhibition of XO (unknown origin) using xanthine as substrate pre incubated for 5 mins followed by substrate addition measured after 1 mins by spectrophotometric analysis
# [15] = target: T2, Xanthine dehydrogenase/oxidase; test: Inhibition of Bovine milk XO using xanthine as substrate assessed as decrease in uric acid level pre incubated for 15 mins followed by substrate addition measured after 30 mins by spectrophotometric analysis
# [16] = target: T1, Xanthine dehydrogenase/oxidase; test: Inhibition of XO (unknown origin) using xanthine as substrate pre incubated for 15 mins followed by substrate addition measured after 30 mins by UV-VIS spectrophotometer analysis
# [17] = target: T1, Xanthine dehydrogenase/oxidase; test: Inhibition of XO (unknown origin) using xanthine as substrate measured after 10 mins
# [18] = target: T1, Xanthine dehydrogenase/oxidase; test: Inhibition of XO (unknown origin) using xanthine as substrate pre incubated for 10 mins followed by substrate addition measured after 15 mins
# [19] = target: T2, Xanthine dehydrogenase/oxidase; test: Inhibition of Bovine milk XO using xanthine as substrate pre incubated for 5 mins followed by substrate addition measured after 30 mins by spectrophotometric analysis
# [20] = target: T2, Xanthine dehydrogenase/oxidase; test: Inhibition of Bovine milk XO using xanthine as substrate assessed as decrease in uric acid level measured after 15 mins by spectrophotometric analysis
# [21] = Toxicity in rat assessed as hypouricemic activity at 1 mg/kg; type: organism-based; conditions: in vivo
# [22] = Toxicity in rat assessed as hypouricemic activity at 3 mg/kg measured after 24 hrs; type: organism-based; conditions: in vivo
# [23] = target: T1, Xanthine dehydrogenase/oxidase; test: Inhibition of XO (unknown origin) using xanthine as substrate measured after 2 to 3 mins by UV-spectrophotometric analysis
# [24] = target: T2, Xanthine dehydrogenase/oxidase; test: Inhibition of Bovine XO using xanthine as substrate assessed as decrease in uric acid level preincubated for 15 mins followed by substrate addition measured after 2 mins by spectrophotometric analysis
# [25] = target: T4, Xanthine dehydrogenase/oxidase (Mus musculus, UniProt Q00519); test: Inhibition of mouse serum XO assessed as decrease in uric acid level measured after 6 hrs relative to control
# T4 sequence (Q00519 whole entry): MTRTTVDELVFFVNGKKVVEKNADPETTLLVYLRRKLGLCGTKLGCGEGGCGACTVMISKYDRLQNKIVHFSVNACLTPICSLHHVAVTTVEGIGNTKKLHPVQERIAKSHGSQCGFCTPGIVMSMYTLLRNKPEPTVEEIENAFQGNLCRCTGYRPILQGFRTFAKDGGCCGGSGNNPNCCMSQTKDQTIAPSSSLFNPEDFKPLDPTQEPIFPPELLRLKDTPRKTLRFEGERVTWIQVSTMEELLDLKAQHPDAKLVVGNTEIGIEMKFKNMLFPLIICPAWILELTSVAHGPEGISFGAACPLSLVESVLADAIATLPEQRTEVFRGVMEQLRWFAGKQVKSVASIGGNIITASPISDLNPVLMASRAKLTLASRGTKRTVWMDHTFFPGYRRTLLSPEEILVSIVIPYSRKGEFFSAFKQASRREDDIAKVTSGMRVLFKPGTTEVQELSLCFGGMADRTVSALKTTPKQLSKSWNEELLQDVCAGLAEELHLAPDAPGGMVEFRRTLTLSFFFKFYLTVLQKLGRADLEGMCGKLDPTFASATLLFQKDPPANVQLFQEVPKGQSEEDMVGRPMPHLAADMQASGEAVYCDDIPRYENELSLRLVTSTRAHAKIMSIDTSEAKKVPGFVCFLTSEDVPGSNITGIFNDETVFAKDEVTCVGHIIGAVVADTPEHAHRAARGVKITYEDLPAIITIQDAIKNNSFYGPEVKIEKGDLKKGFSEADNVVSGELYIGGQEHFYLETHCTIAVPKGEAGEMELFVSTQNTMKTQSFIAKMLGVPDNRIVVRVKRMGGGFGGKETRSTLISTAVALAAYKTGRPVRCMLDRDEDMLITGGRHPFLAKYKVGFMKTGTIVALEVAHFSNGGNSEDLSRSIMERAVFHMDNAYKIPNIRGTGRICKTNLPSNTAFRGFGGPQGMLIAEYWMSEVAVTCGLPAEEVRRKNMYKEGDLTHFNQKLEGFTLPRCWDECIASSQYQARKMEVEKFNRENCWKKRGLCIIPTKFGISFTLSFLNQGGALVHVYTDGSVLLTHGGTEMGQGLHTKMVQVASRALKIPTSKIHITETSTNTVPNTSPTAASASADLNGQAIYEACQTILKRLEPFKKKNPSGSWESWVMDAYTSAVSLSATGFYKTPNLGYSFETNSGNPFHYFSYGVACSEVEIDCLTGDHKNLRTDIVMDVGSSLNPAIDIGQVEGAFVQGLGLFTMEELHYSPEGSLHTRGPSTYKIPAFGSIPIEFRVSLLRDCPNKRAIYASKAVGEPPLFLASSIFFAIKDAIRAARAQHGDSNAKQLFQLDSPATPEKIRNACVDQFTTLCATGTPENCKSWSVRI
# [26] = target: T4, Xanthine dehydrogenase/oxidase; test: Inhibition of mouse serum XO assessed as decrease in uric acid level measured after 2 hrs relative to control
# [27] = target: T1, Xanthine dehydrogenase/oxidase; test: Inhibition of XO (unknown origin) using xanthine as substrate assessed as decrease in uric acid level measured after 3 mins by spectrophotometric analysis
# T1 sequence (P47989 whole entry): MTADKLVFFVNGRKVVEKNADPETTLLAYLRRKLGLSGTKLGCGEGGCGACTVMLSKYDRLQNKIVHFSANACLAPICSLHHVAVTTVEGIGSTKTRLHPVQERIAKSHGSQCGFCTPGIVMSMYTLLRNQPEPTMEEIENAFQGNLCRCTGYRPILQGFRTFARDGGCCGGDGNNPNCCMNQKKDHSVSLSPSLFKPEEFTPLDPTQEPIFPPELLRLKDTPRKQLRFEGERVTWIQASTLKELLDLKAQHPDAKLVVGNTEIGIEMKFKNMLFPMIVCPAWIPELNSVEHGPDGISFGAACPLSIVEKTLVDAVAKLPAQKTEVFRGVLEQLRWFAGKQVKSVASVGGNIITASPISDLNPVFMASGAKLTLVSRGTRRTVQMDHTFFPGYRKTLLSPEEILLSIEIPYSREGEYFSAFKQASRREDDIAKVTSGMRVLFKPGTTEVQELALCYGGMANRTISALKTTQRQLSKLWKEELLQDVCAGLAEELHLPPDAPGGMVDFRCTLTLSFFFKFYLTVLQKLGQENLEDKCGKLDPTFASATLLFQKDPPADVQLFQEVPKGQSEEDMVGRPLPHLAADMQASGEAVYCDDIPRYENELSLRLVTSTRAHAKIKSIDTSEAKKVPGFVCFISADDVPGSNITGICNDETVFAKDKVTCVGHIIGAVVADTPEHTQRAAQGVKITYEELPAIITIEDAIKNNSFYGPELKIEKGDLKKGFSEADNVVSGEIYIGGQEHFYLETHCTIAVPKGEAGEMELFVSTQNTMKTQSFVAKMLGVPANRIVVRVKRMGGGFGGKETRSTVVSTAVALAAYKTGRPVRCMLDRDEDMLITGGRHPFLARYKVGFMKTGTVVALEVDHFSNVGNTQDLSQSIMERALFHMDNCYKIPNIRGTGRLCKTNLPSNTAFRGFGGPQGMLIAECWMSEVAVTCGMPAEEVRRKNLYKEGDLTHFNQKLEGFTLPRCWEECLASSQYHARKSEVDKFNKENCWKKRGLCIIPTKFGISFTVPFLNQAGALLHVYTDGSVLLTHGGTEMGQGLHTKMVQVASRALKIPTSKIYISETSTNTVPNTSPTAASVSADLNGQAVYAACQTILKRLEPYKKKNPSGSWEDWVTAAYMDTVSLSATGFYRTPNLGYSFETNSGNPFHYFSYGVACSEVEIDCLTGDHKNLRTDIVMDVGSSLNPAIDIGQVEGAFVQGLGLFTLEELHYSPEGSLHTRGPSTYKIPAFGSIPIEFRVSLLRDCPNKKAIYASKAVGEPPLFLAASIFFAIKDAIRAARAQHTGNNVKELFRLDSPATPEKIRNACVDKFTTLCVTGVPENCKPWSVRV
compound,measurement,setting,value
Clc1cc2nc(-c3ccncc3)[nH]c2cc1Cl,inhibition (INH),[1],56%
N#Cc1cn(-c2ccc(C(=O)O)c(O)c2)cc1-c1cccs1,inhibition at 100 µM,[2],> 90%
CCCCc1cn(-c2ccc(C(=O)O)c(O)c2)cc1C#N,inhibition at 100 µM,[2],> 90%
O=C(O)c1ccc2c(c1)C(=O)N(c1ccccc1)C2=O,pIC50,[3],5.15
O=c1oc2cc(O)cc(O)c2cc1-c1cccc(O)c1,pIC50,[4],5.67
OCc1ccc(O)c(O)c1,pIC50,[5],5.52
Cc1cc(-c2nc(-c3ccc(OCC(C)C)c([N+](=O)[O-])c3)n[nH]2)ccn1,Activity,[6],66.5%
Cc1cc(-c2n[nH]c(-c3ccc(OCC(C)C)c(C#N)c3)n2)ccn1,Activity,[6],67.5%
Cc1nc(-c2cc(I)c3c(c2)CCC(C)(C)O3)sc1C(=O)O,pIC50,[7],8.73
CCC1(C)Cc2cc(-c3nc(C)c(C(=O)O)s3)cc(C#N)c2O1 (stereo unspecified),pIC50,[7],8.87
COC(=O)C(Sc1nnc(Br)n1-c1ccc(Br)c2ccccc12)C(=O)OC,pIC50,[8],7.71
Cc1ccc2c(-c3ccc(C(=O)O)c(O)c3)cc(C#N)n2n1,inhibition (INH),[9],60%
same,pIC50,[10],8.52
COc1cc(OC)c(C(=O)/C=C/c2ccccc2F)c(O)c1C(=O)/C=C/c1ccccc1F,pIC50,[11],6.14
N#Cc1ccc(NS(=O)(=O)c2ccccc2OC(F)(F)F)cc1Cl,pIC50,[12],8.22
O=C(Nc1ccc(-c2nnn[nH]2)cc1)c1c(O)[nH]c(=S)[nH]c1=O,pIC50,[13],6.41
COc1ccc(-c2cc3cc([N+](=O)[O-])ccc3oc2=O)cc1,pIC50,[14],5.08
O=[N+]([O-])c1ccc(CSc2nnc(-c3cc(-c4ccccc4)nn3Cc3ccccc3)o2)cc1,pIC50,[15],4.14
O=Cc1ccc(C2Nc3ccccc3-c3cc(-c4ccccc4)nn32)c([N+](=O)[O-])c1 (stereo unspecified),pIC50,[16],4.96
Cc1nc(-c2cc(C#N)c3c(c2)CCC(C)(C)O3)[se]c1C(=O)O,pIC50,[7],8.63
Cc1nc(-c2cc(C#N)c3c(c2)CC2(CCCCC2)O3)sc1C(=O)O,pIC50,[7],8.85
Cc1nc(-c2cc(C#N)c3c(c2)CCC(C)(C)O3)sc1C(=O)O,pIC50,[7],8.58
Nn1c(S)nnc1-c1cc(-c2ccccc2)nn1Cc1ccccc1,pIC50,[15],4.18
Cc1nc(-c2cc(C#N)c3c(c2)CC2(CCCC2)O3)[se]c1C(=O)O,pIC50,[7],8.80
COCOc1cccc(-c2c[nH]cc2C#N)c1,inhibition at 100 µM,[2],> 90%
N#Cc1c(Cl)cc(NS(=O)(=O)c2ccccc2OC(F)(F)F)cc1Cl,pIC50,[12],8.40
O=C1CC(c2ccccc2)Oc2c3c(c(CO)c(O)c21)OCN(c1ccc(F)cc1)C3 (stereo unspecified),inhibition (INH),[1],84.27%
COC(=O)[C@H]1C[C@@H](n2cc(-c3ccccc3)nn2)[C@H](O)C[C@H]1C(=O)OC,pIC50,[17],6.23
O=C(NC(Cc1ccccc1)C(=O)O)c1ccc2c(c1)C(=O)c1ccccc1C2=O (stereo unspecified),pIC50,[11],5.54
CN1C(=O)C(=Cc2ccc(Cl)cc2Cl)C(=O)N(C)C1=O,pIC50,[18],1.68
Cc1nn(-c2ccc(OCCC(C)C)c(C#N)c2)nc1C(=O)O,pIC50,[19],7.08
O=[N+]([O-])c1cc(C2=NC3=CN=CN(O)C3S2)ccc1Oc1ccccc1F (stereo unspecified),pIC50,[10],8.27
CCOC(=O)c1sc(-c2cc(I)c3c(c2)CCC(C)(C)O3)nc1C,pIC50,[7],8.89
O=C(/C=C/c1cc(O)cc(O)c1)c1ccc(O)cc1O,pIC50,[20],4.65
Cc1nc(-c2ccc(OC(C)C)c(-n3cnnn3)c2)sc1C(=O)O,Activity,[21],50%
Cc1nc(-c2ccc(OCC(C)(C)C)c(-n3cnnn3)c2)sc1C(=O)O,Activity,[22],40%
same,Activity,[21],50%
Cc1nc(-c2cc(C#N)c3c(c2)CC(C)O3)sc1C(=O)O (stereo unspecified),pIC50,[7],8.74
COc1ccc([C@@H]2C/C(=N\c3ccc([N+](=O)[O-])cc3Cl)C3C(O)=CC(O[C@H]4C[C@@H](OC5O[C@H](C)[C@@H](O)[C@H](O)C5O)[C@H](O)[C@@H](O)[C@@H]4O)=CC3O2)cc1O (stereo partly specified),pIC50,[23],6.58
Cc1nc(-c2ccc(OCC(C)C)c(-n3cnnn3)c2)sc1C(=O)O,Activity,[22],40%
same,Activity,[21],50%
O=c1[nH]c(-c2ccc(OCC3CCCCC3)c(-n3cnnn3)c2)no1,pIC50,[24],6.92
Cc1cc(C)c(C[n+]2cn(CCO)c3ccccc32)c(C)c1,pIC50,[17],5.90
Oc1ncnc2[nH]ncc12 [ALLOPURINOL],inhibition (INH),[25],14%
same,inhibition (INH),[26],33%
COc1ccc2c(c1)c(CC(=O)O)c(C)n2C(=O)c1ccc(Cl)cc1 [INDOMETHACIN],pIC50,[27],4.07
